The test system of the test is co-culture of keratinocytes and melanocytes. Description: Depigmenting activity test: inhibition of melanogenesis on a co-culture of keratinocytes and melanocytes. It counts as cell-based. The following applies: for Class (maximum depigmenting activity): inhibition of melanogenesis relative to the control; for IC50: co-culture of keratinocytes and melanocytes, read-out: IC50 (concentration for which a 50% inhibition of melanogenesis is observed). The method, then:
This test corresponds to the one described in patent FR 2,734,825 filed by the Applicant, as well as in the article by R. Schmidt, P. Krien and M. Régnier, Anal. Biochem., 235 (2), 113-18, (1996). This test is thus carried out on a co-culture of keratinocytes and melanocytes.
For each test compound, the IC50 value, which corresponds to the micromolar concentration (μM) for which a 50% inhibition of melanogenesis is observed, is determined.
Moreover, a class is given to each of these compounds as regards their maximum depigmenting activity:
class 1: 10 to 30% inhibition of melanogenesis relative to the control (same experiment without test compound);
class 2: 30 to 60% inhibition of melanogenesis relative to the control (same experiment without test compound);
class 3: 60 to 100% inhibition of melanogenesis relative to the control (same experiment without test compound).

The values below come from US6365135B1, “Use of amino phenol amide derivatives as depigmentation agents” (L'Oreal, priority 1997, dated 2002).

Some results are limits rather than exact numbers.

Consider `O=c1cc(CO)occ1O` [Kojic acid], for which the IC50 turned out to be 500 µM. Further, the “Class (maximum depigmenting activity)” value (500 μM) is 2 to 500 μM (class 2: 30 to 60% inhibition of melanogenesis relative to the control (same experiment without test compound)).
On to `CCCCCCCCCCCC(=O)Oc1ccc(NC(C)=O)cc1` [Lauroyl [4-(N-acetylamino)] phenol, Lauroyl [4-(N-acetylamino)]phenol], for which the IC50 was greater than 100 µM. For the same compound, the “Class (maximum depigmenting activity)” value (100 μM) was 2 to 100 μM (class 2: 30 to 60% inhibition of melanogenesis relative to the control (same experiment without test compound)).
